Data published in patent US12060347B2 (BRISTOL-MYERS SQUIBB COMPANY, priority 2016, dated 2024).

target: T1, human PAR4 (Homo sapiens, UniProt Q96RI0); experiment: PAR4 FLIPR assay: antagonism of agonist-peptide-induced calcium mobilization in PAR4-expressing HEK293 cells; assay type: cell-based; conditions: H-Ala-Phe(4-F)-[…]NH2-induced intracellular calcium mobilization, 11-point curves
T1 construct: expressed in transfected cells; host or cells: HEK293 PAR4 Clone 1.2A (BMS Arctic ID 383940)
T1 sequence (Q96RI0 18-385): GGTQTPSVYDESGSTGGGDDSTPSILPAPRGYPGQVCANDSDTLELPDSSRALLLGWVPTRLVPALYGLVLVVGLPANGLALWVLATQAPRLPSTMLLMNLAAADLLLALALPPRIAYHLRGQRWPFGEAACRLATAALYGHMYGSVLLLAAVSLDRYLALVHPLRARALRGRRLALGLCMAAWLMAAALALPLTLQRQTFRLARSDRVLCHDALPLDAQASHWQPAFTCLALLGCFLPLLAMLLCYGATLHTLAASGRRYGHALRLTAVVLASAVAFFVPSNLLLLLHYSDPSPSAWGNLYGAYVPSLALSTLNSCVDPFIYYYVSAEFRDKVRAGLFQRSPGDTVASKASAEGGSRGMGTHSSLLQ

| SMILES | IC50 [nM] |
| --- | --- |
| COc1cnc2c(-c3nc4c(F)c(F)c(OCCNS(=O)(=O)c5cccc(F)c5)cc4s3)cc(C)cc2n1 [Example 316, N-(2-((4,5-difluoro-2-(2-methoxy-7-methylquinoxalin-5-yl)benzo[d]thiazol-6-yl)oxy)ethyl)-3-fluorobenzenesulfonamide] | 4.9 |
| COCc1cnc2c(-c3nc4c(F)c(F)c(OCCNS(=O)(=O)c5cccc(F)c5)cc4s3)cc(C)cc2n1 [Example 317, N-(2-((4,5-difluoro-2-(2-(methoxymethyl)-7-methylquinoxalin-5-yl)benzo[d]thiazol-6-yl)oxy)ethyl)-3-fluorobenzenesulfonamide] | 4.5 |
| COc1cnc2c(-c3nc4c(Cl)c(F)c(OCCO)cc4s3)cc(C)cc2n1 [Example 318, 2-((4-chloro-5-fluoro-2-(2-methoxy-7-methylquinoxalin-5-yl)benzo[d]thiazol-6-yl)oxy)ethanol] | 7.8 |
| COCc1cnc2c(-c3nc4c(C)c(C)c(OCC(C)(C)O)cc4s3)cc(C)cc2n1 [Example 319, 1-((2-(2-(methoxymethyl)-7-methylquinoxalin-5-yl)-4,5-dimethylbenzo[d]thiazol-6-yl)oxy)-2-methylpropan-2-ol] | 7.3 |
| COCc1cnc2c(-c3nc4c(C)c(C)c(OCCOC(=O)OC)cc4s3)cc(C)cc2n1 [Example 320, 2-((2-(2-(methoxymethyl)-7-methylquinoxalin-5-yl)-4,5-dimethylbenzo[d]thiazol-6-yl)oxy)ethyl methyl carbonate] | 3.4 |
| COc1cnc2c(-c3nc4c(Cl)c(F)c(OCC(=O)N5CCOCC5)cc4s3)cc(C)cc2n1 [Example 324, 2-((4-chloro-5-fluoro-2-(2-methoxy-7-methylquinoxalin-5-yl)benzo[d]thiazol-6-yl)oxy)-1-morpholinoethanone] | 42 |
| [2H]C([2H])(O)c1c(C)c(OC)cc2sc(-c3cc(C)cc4nc(COC)cnc34)nc12 [Example 325] | 0.7 |
| COCc1cnc2c(-c3nc4c(C(C)O)c(C)c(OC)cc4s3)cc(C)cc2n1 (stereo not shown) [Example 326, 1-(6-methoxy-2-(2-(methoxymethyl)-7-methylquinoxalin-5-yl)-5-methylbenzo[d]thiazol-4-yl)ethanol] | 1.1 |
| COCc1cnc2c(-c3nc4c(Cl)c(C)c(OCCO)cc4s3)cc(C)cc2n1 [Example 327, 2-((4-chloro-2-(2-(methoxymethyl)-7-methylquinoxalin-5-yl)-5-methylbenzo[d]thiazol-6-yl)oxy)ethanol] | 5.2 |
| COCc1cnc2c(-c3nc4cc(F)c(OC(C)C)cc4s3)cc(C)cc2n1 [Example 329, 5-fluoro-6-isopropoxy-2-(2-(methoxymethyl)-7-methylquinoxalin-5-yl)benzo[d]thiazole] | 1.1 |
| COc1cnc2c(-c3nc4c(Cl)c(F)c(OCCNS(=O)(=O)c5ccccc5)cc4s3)cc(C)cc2n1 [Example 330, N-(2-((4-chloro-5-fluoro-2-(2-methoxy-7-methylquinoxalin-5-yl)benzo[d]thiazol-6-yl)oxy)ethyl)benzenesulfonamide] | 57 |
| COc1cnc2c(-c3nc4c(Cl)c(F)c(OCCOC(=O)Nc5cccnc5)cc4s3)cc(C)cc2n1 [Example 331, 2-((4-chloro-5-fluoro-2-(2-methoxy-7-methylquinoxalin-5-yl)benzo[d]thiazol-6-yl)oxy)ethyl pyridin-3-ylcarbamate] | 9.2 |
| COc1ccc(NC(=O)OCCOc2cc3sc(-c4cc(C)cc5nc(OC)cnc45)nc3c(Cl)c2F)cn1 [Example 332, 2((4-chloro-5-fluoro-2-(2-methoxy-7-methylquinoxalin-5-yl)benzo[d]thiazol-6-yl)oxy)ethyl (6-methoxypyridin-3-yl)carbamate] | 2.4 |
| COc1cnc2c(-c3nc4c(Cl)c(F)c(OCCOC(=O)Nc5ccc6[nH]c(=O)oc6c5)cc4s3)cc(C)cc2n1 [Example 333, 2((4-chloro-5-fluoro-2-(2-methoxy-7-methylquinoxalin-5-yl)benzo[d]thiazol-6-yl)oxy)ethyl (2-oxo-2,3-dihydrobenzo[d]oxazol-6-yl)carbamate] | 1.7 |
| COc1cnc2c(-c3nc4c(Cl)c(F)c(OCCOC(=O)NCC(F)(F)F)cc4s3)cc(C)cc2n1 [Example 334, 2((4-chloro-5-fluoro-2-(2-methoxy-7-methylquinoxalin-5-yl)benzo[d]thiazol-6-yl)oxy)ethyl (2,2,2-trifluoroethyl)carbamate] | 29 |
| COc1cnc2c(-c3nc4c(Cl)c(F)c(OCCOC(=O)Nc5ccncc5)cc4s3)cc(C)cc2n1 [Example 335, 2((4-chloro-5-fluoro-2-(2-methoxy-7-methylquinoxalin-5-yl)benzo[d]thiazol-6-yl)oxy)ethyl pyridin-4-ylcarbamate] | 2.5 |

| SMILES | IC50 [nM] |
| --- | --- |
| COc1cnc2c(-c3nc4c(Cl)c(F)c(OCCOC(=O)Nc5ccnc(C)c5)cc4s3)cc(C)cc2n1 [Example 336, 2((4-chloro-5-fluoro-2-(2-methoxy-7-methylquinoxalin-5-yl)benzo[d]thiazol-6-yl)oxy)ethyl (2-methylpyridin-4-yl)carbamate] | 5.5 |
| COc1cnc2c(-c3nc4c(Cl)c(F)c(OCCOC(=O)Nc5cncc(F)c5)cc4s3)cc(C)cc2n1 [Example 337, 2((4-chloro-5-fluoro-2-(2-methoxy-7-methylquinoxalin-5-yl)benzo[d]thiazol-6-yl)oxy)ethyl (5-fluoropyridin-3-yl)carbamate] | 0.7 |
| COc1cnc2c(-c3nc4c(Cl)c(F)c(OCCOC(=O)Nc5ccc(-n6cnc(C)n6)nc5)cc4s3)cc(C)cc2n1 [Example 338, 2((4-chloro-5-fluoro-2-(2-methoxy-7-methylquinoxalin-5-yl)benzo[d]thiazol-6-yl)oxy)ethyl (6-(3-methyl-1H-1,2,4-triazol-1-yl)pyridin-3-yl)carbamate] | 2 |
| COc1cnc2c(-c3nc4cc(F)c(OCCOC(=O)Nc5cccnc5)cc4s3)cc(C)cc2n1 [Example 339, 2-((5-fluoro-2-(2-methoxy-7-methylquinoxalin-5-yl)benzo[d]thiazol-6-yl)oxy)ethyl pyridin-3-ylcarbamate] | 1.6 |
| COc1cnc2c(-c3nc4cc(F)c(OCCOC(=O)Nc5ccc(F)nc5)cc4s3)cc(C)cc2n1 [Example 340, 2-((5-fluoro-2-(2-methoxy-7-methylquinoxalin-5-yl)benzo[d]thiazol-6-yl)oxy)ethyl (6-fluoropyridin-3-yl)carbamate] | 1.5 |
| COc1ccc(NC(=O)OCCOc2cc3sc(-c4cc(C)cc5nc(OC)cnc45)nc3cc2F)cn1 [Example 341, 2-((5-fluoro-2-(2-methoxy-7-methylquinoxalin-5-yl)benzo[d]thiazol-6-yl)oxy) ethyl (6-methoxypyridin-3-yl)carbamate] | 15 |
| COc1cnc2c(-c3nc4cc(F)c(OCCOC(=O)Nc5ccncc5)cc4s3)cc(C)cc2n1 [Example 342, 2-((5-fluoro-2-(2-methoxy-7-methylquinoxalin-5-yl)benzo[d]thiazol-6-yl)oxy)ethyl pyridin-4-ylcarbamate] | 11 |
| COc1cnc2c(-c3nc4cc(F)c(OCCOC(=O)Nc5ccc6[nH]c(=O)oc6c5)cc4s3)cc(C)cc2n1 [Example 343, 2-((5-fluoro-2-(2-methoxy-7-methylquinoxalin-5-yl)benzo[d]thiazol-6-yl)oxy)ethyl (2-oxo-2,3-dihydrobenzo[d]oxazol-6-yl)carbamate] | 0.7 |
| COc1cnc2c(-c3nc4cc(F)c(O[C@H](C)COC(=O)Nc5cccnc5)cc4s3)cc(C)cc2n1 [Example 344, (R)-2-((5-fluoro-2-(2-methoxy-7-methylquinoxalin-5-yl)benzo[d]thiazol-6-yl)oxy)propyl pyridin-3-ylcarbamate] | 11 |
| COc1cnc2c(-c3nc4cc(F)c(O[C@@H](C)COC(=O)Nc5cccnc5)cc4s3)cc(C)cc2n1 [Example 345, (S)-2-((5-fluoro-2-(2-methoxy-7-methylquinoxalin-5-yl)benzo[d]thiazol-6-yl)oxy)propyl pyridin-3-ylcarbamate] | 0.6 |
| COc1cnc2c(-c3nc4cc(F)c(OC[C@H](C)OC(=O)Nc5cccnc5)cc4s3)cc(C)cc2n1 [Example 346, (S)-1-((5-fluoro-2-(2-methoxy-7-methylquinoxalin-5-yl)benzo[d]thiazol-6-yl)oxy)propan-2-ylpyridin-3-ylcarbamate] | 3.7 |
| COc1cnc2c(-c3nc4cc(F)c(OC[C@@H](C)OC(=O)Nc5cccnc5)cc4s3)cc(C)cc2n1 [Example 347, (R)-1-((5-fluoro-2-(2-methoxy-7-methylquinoxalin-5-yl)benzo[d]thiazol-6-yl)oxy)propan-2-yl pyridin-3-ylcarbamate] | 0.8 |
| COc1cnc2c(-c3nc4cc(F)c(OC[C@@H](C)OC(=O)Nc5ccc(F)nc5)cc4s3)cc(C)cc2n1 [Example 348, (R)-1-((5-fluoro-2-(2-methoxy-7-methylquinoxalin-5-yl)benzo[d]thiazol-6-yl)oxy)propan-2-yl (6-fluoropyridin-3-yl)carbamate] | 4.4 |
| COc1cnc2c(-c3nc4cc(F)c(OC[C@@H](C)OC(=O)Nc5ccncc5)cc4s3)cc(C)cc2n1 [Example 349, (R)-1-((5-fluoro-2-(2-methoxy-7-methylquinoxalin-5-yl)benzo[d]thiazol-6-yl)oxy)propan-2-yl pyridin-4-ylcarbamate] | 2.7 |
| COc1cnc2c(-c3nc4cc(F)c(OC[C@@H](C)OC(=O)Nc5ccc6[nH]c(=O)oc6c5)cc4s3)cc(C)cc2n1 [Example 350, (R)-1-((5-fluoro-2-(2-methoxy-7-methylquinoxalin-5-yl)benzo[d]thiazol-6-yl)oxy)propan-2-yl (2-oxo-2,3-dihydrobenzo[d]oxazol-6-yl)carbamate] | 2.8 |
